Measurements taken from publication PMC7814854 (Biochemistry, 2019).

Target: CMP-sialic acid synthetase (NmCSS) (Neisseria meningitidis, UniProt P0A0Z8)
Test: X-ray crystal structure
Format: biochemical

CMP-sialic acid synthetase (NmCSS), sequence (P0A0Z8 whole entry): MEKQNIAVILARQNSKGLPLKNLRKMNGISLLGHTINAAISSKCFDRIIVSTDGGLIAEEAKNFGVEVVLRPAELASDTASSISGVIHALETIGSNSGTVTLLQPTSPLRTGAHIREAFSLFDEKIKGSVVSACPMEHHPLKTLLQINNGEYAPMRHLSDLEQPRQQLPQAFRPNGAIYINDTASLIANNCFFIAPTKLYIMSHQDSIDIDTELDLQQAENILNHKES

CC(=O)N[C@H]1[C@H]([C@H](O)[C@H](O)CO)OC(C(=O)O)=C[C@@H]1O [Neu5Ac2en, 2-deoxy-2,3-dehydro-N-acetylneuraminic acid]
IC50: 130 ± 10 µM
